# In PMC7558026, “Exploring and applying the substrate promiscuity of a C-glycosyltransferase in the chemo-enzymatic synthesis of bioactive C-glycosides” (Nature Communications, 2020):
# Where “and” joins values, the source holds several entries; their conditions need not be identical. Equal values may be shown once.
# What was measured:
# Type in all cases: biochemical, Aloe barbadensis
# AbCGT V183R = assay: Glycosyltransferase activity of AbCGT variant V183R; details: pH 7.4, 30 °C, 12 h, Reaction-1 to -3
# Protocol: (§1) The reaction mixture contained 0.5 mM sugar donors (1.0 mM for di-glycosylation), 0.25 mM aglycons, 50 mM Tris-HCl (pH 7.4), and 50‒100 μg of purified AbCGT in a final volume of 100 μL. Due to the instability of some acceptors in the buffer of pH 11.0, the reactions were performed under the physiological conditions (pH 7.4, 30 °C) to compare the catalytic activities of AbGT27 with different substrates under the same conditions. The reactions were performed at 30 °C for up to 12 h and terminated by the addition of 200 μL of ice-cold methanol. Subsequently, samples were centrifuged at 15,000 × g for 30 min to collect the supernatant, and aliquots were analyzed by HPLC-UV/ESIMS. HPLC analysis was performed on a Shiseido CAPCELL PAK C18 MG III column (250 mm × 4.6 mm I.D., 5 μm, Shiseido Co., Ltd., Japan) at a flow rate of 1 mL min^‒1. The mobile phase was a gradient elution of solvents A (0.1% formic acid aqueous solution) and B (methanol). The gradient programs were used for the analysis of the reactions (Supplementary Table 6). The conversion rates of the enzyme reactions were calculated from peak areas of glycosylated products and substrates as analyzed by HPLC. To facilitate inferential statistical analysis, three parallel assays were routinely performed; the means ± SD from triplicate analyses are reported here. […]
# AbCGT V183Q = assay: Glycosyltransferase activity of AbCGT variant V183Q; details: pH 7.4, 30 °C, 12 h, Reaction-1 to -3
# Protocol: as §1
# AbCGT V183E = target: T1, AbCGT V183E (Aloe vera, UniProt A0A7G9P699, V183E); assay: Glycosyltransferase activity of AbCGT variant V183E
# T1 sequence (A0A7G9P699 1-470 V183E): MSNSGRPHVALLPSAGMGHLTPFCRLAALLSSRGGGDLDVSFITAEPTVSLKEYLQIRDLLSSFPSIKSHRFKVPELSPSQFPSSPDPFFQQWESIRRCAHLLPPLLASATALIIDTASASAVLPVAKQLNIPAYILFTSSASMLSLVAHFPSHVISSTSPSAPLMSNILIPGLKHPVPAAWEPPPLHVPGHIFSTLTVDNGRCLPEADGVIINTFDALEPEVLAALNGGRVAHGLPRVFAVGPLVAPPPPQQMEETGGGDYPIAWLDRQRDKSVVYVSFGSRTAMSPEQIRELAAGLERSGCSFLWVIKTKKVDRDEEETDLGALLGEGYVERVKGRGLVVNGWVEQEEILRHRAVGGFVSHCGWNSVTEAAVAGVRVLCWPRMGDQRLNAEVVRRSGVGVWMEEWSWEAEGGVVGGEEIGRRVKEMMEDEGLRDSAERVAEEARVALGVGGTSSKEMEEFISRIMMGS
# Protocol: The reaction mixture contained 0.5 mM sugar donors (1.0 mM for di-glycosylation), 0.25 mM aglycons, 50 mM Tris-HCl (pH 7.4), and 50‒100 μg of purified AbCGT in a final volume of 100 μL. Due to the instability of some acceptors in the buffer of pH 11.0, the reactions were performed under the physiological conditions (pH 7.4, 30 °C) to compare the catalytic activities of AbGT27 with different substrates under the same conditions. The reactions were performed at 30 °C for up to 12 h and terminated by the addition of 200 μL of ice-cold methanol. Subsequently, samples were centrifuged at 15,000 × g for 30 min to collect the supernatant, and aliquots were analyzed by HPLC-UV/ESIMS. HPLC analysis was performed on a Shiseido CAPCELL PAK C18 MG III column (250 mm × 4.6 mm I.D., 5 μm, Shiseido Co., Ltd., Japan) at a flow rate of 1 mL min^‒1. The mobile phase was a gradient elution of solvents A (0.1% formic acid aqueous solution) and B (methanol). The gradient programs were used for the analysis of the reactions (Supplementary Table 6). The conversion rates of the enzyme reactions were calculated from peak areas of glycosylated products and substrates as analyzed by HPLC. To facilitate inferential statistical analysis, three parallel assays were routinely performed; the means ± SD from triplicate analyses are reported here.
# Site-saturation mutagenesis of AbCGT at residue 183 was performed by PCR using pET28a-AbCGT as a template and the corresponding degenerate primers, which are listed in Supplementary Table 5. PCR products were purified and transformed into Trans1-T1 (DE3) E. coli. The sequences of pET28a-AbCGT mutants were confirmed by sequencing, and transformed into Transetta (DE3) E. coli for heterologous expression following protein purification.
# AbCGT [1] = target: T2, AbCGT (Aloe vera, UniProt A0A7G9P699); assay: Glycosyltransferase activity assay, purified AbCGT (wild type) with aglycon acceptors and UDP-Glc
# T2 sequence (A0A7G9P699 entry or part of it): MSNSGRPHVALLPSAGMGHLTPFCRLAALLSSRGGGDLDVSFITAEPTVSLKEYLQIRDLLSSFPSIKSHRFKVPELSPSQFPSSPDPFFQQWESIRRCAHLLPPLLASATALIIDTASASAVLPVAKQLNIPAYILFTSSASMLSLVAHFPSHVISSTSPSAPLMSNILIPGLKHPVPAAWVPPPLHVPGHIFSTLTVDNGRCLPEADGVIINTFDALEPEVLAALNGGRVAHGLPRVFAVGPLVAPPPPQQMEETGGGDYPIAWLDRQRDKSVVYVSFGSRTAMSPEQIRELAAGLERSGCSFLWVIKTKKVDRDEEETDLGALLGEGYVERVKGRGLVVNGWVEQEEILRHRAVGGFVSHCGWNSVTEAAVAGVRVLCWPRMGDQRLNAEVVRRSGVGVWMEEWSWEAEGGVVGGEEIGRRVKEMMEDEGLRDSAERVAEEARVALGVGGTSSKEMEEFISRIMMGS
# AbCGT V183D = target: T3, AbCGT V183D (Aloe vera, UniProt A0A7G9P699, V183D); assay: Glycosyltransferase activity of AbCGT variant V183D
# T3 sequence (A0A7G9P699 1-470 V183D): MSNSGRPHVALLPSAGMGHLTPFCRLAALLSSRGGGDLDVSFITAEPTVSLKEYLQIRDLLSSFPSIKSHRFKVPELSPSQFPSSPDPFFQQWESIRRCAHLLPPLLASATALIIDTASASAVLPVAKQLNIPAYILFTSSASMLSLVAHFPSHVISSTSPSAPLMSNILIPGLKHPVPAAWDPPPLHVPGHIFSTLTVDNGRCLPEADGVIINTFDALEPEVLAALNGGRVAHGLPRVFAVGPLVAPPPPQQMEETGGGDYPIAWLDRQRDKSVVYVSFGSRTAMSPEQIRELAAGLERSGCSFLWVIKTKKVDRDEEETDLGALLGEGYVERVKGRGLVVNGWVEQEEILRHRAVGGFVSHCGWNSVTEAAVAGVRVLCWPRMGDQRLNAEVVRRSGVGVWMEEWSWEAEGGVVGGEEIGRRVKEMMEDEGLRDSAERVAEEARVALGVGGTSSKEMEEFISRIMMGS
# Summary of the method: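 Each purified AbCGT residue-183 mutant (50‒100 μg) was incubated with 0.25 mM aglycon and 0.5 mM sugar donor (1.0 mM for di-glycosylation) in 50 mM Tris-HCl pH 7.4 at 30 °C for up to 12 h. The reaction was quenched with cold methanol, and conversion rate was taken from HPLC peak areas of product versus substrate; triplicate means ± SD.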
# AbCGT [2] = target: T2, AbCGT; assay: Glycosyltransferase activity assay, purified AbCGT (wild type) with aglycon acceptors and UDP-Glc; details: pH 7.4, 30 °C, 12 h, Reaction-1 to -3
# AbCGT V183C = assay: Glycosyltransferase activity of AbCGT variant V183C; details: pH 7.4, 30 °C, 12 h, Reaction-1 to -3
# Protocol: as §1
# AbCGT V183L = assay: Glycosyltransferase activity of AbCGT variant V183L; details: pH 7.4, 30 °C, 12 h, Reaction-1 to -3
# Protocol: as §1
# AbCGT V183N = assay: Glycosyltransferase activity of AbCGT variant V183N; details: pH 7.4, 30 °C, 12 h, Reaction-1 to -3
# Protocol: as §1
# AbCGT V183M = assay: Glycosyltransferase activity of AbCGT variant V183M; details: pH 7.4, 30 °C, 12 h, Reaction-1 to -3
# Protocol: as §1
# [3] = V183E, pH 7.4, 30 °C, 12 h, Reaction-1 to -3
# [4] = aglycon acceptor with UDP-Glc, pH 7.4, 30 °C, up to 12 h, Reaction-1 to -3
# [5] = V183D, pH 7.4, 30 °C, 12 h, Reaction-1 to -3
smiles,measurement,setting,value
"O=C1CC(O)(c2ccc(O)cc2)Oc2cc(O)cc(O)c21 (stereo not drawn) [Compound 23, 2-hydroxynaringenin]","conversion rates of 2-hydroxynaringenin, C-glycosylation",AbCGT V183R,64.9% and 75.1% and 70.5%
same,"conversion rates of 2-hydroxynaringenin, O-glycosylation",AbCGT V183R,3.4% and 2.7% and 2.9%
same,"conversion rates of 2-hydroxynaringenin, C-glycosylation",AbCGT V183Q,88.9% and 88.2%
same,"conversion rates of 2-hydroxynaringenin, O-glycosylation",AbCGT V183Q,11.1% and 11.8%
same,"conversion rates of 2-hydroxynaringenin, C-glycosylation",AbCGT V183E; [3],99.8% and 99.6%
same,"conversion rates of 2-hydroxynaringenin, O-glycosylation",AbCGT V183E; [3],0.2% and 0.4%
same,V183E/yield of O-glycoside(%),AbCGT V183E; reaction-1,0% and 0.5%
same,V183E/yield of O-glycoside(%),AbCGT V183E; reaction-2,0% and 0.3%
same,V183E/yield of O-glycoside(%),AbCGT V183E; reaction-3,0% and 0.8%
same,"conversion rates, O,N,S-glycosylation",AbCGT [1]; [4],16.7% and 14.4% and 17.2%
same,"conversion rates, di-C-glycosylation",AbCGT [1]; [4],0%
same,"conversion rates, mono-C-glycosylation",AbCGT [1]; [4],83.3% and 85.6% and 82.8%
same,WT/yield of C-glycoside(%),AbCGT [1]; reaction-1,82%
same,WT/yield of O-glycoside(%),AbCGT [1]; reaction-1,18.7%
same,WT/yield of C-glycoside(%),AbCGT [1]; reaction-2,84.9%
same,WT/yield of O-glycoside(%),AbCGT [1]; reaction-2,16.2%
same,WT/yield of C-glycoside(%),AbCGT [1]; reaction-3,83.2%
same,WT/yield of O-glycoside(%),AbCGT [1]; reaction-3,17.8%
same,"conversion rates of 2-hydroxynaringenin, C-glycosylation",AbCGT V183D; [5],99.7% and 99.5%
same,"conversion rates of 2-hydroxynaringenin, O-glycosylation",AbCGT V183D; [5],0.3% and 0.5%
same,V183D/yield of C-glycoside(%),AbCGT V183D; reaction-1,99.3%
same,V183D/yield of O-glycoside(%),AbCGT V183D; reaction-1,0.7%
same,V183D/yield of C-glycoside(%),AbCGT V183D; reaction-2,99.5%
same,V183D/yield of O-glycoside(%),AbCGT V183D; reaction-2,0.5%
same,V183D/yield of C-glycoside(%),AbCGT V183D; reaction-3,99.2%
same,V183D/yield of O-glycoside(%),AbCGT V183D; reaction-3,0.8%
same,"conversion rates of 2-hydroxynaringenin, C-glycosylation",AbCGT [2],85.9% and 83.4% and 85%
same,"conversion rates of 2-hydroxynaringenin, O-glycosylation",AbCGT [2],14.1% and 16.6% and 15%
same,"conversion rates of 2-hydroxynaringenin, C-glycosylation",AbCGT V183C,85.3% and 83.5%
same,"conversion rates of 2-hydroxynaringenin, O-glycosylation",AbCGT V183C,14.7% and 16.5%
same,"conversion rates of 2-hydroxynaringenin, C-glycosylation",AbCGT V183L,83% and 80% and 76.5%
same,"conversion rates of 2-hydroxynaringenin, O-glycosylation",AbCGT V183L,17% and 20% and 23.5%
same,"conversion rates of 2-hydroxynaringenin, C-glycosylation",AbCGT V183N,95.8% and 95.1% and 94.3%
same,"conversion rates of 2-hydroxynaringenin, O-glycosylation",AbCGT V183N,4.2% and 4.9% and 5.7%
same,"conversion rates of 2-hydroxynaringenin, C-glycosylation",AbCGT V183M,80.2% and 82.7% and 79.5%
same,"conversion rates of 2-hydroxynaringenin, O-glycosylation",AbCGT V183M,19.8% and 17.3% and 20.5%
